Test results published in publication PMC9072656, “Inhibition of Human Sulfotransferases by Phthalate Monoesters” (Frontiers in Endocrinology, 2022).

Legend:
Format in all cases: biochemical
SULT1B1 [1] = target: T1, SULT1B1 (Homo sapiens, UniProt O43704); assay: inhibition of 4-nitrophenol sulfation, UPLC-UV
T1 construct: recombinant, purchased from BD Gentest
Excerpt: inhibition of 4-nitrophenol sulfation, UPLC-UV on SULT1B1

SULT1A1 = target: T2, SULT1A1 (Homo sapiens, UniProt P50225); assay: inhibition of 4-nitrophenol sulfation, UPLC-UV
T2 construct: recombinant, purchased from BD Gentest
Excerpt: inhibition of 4-nitrophenol sulfation, UPLC-UV on SULT1A1

SULT1E1 [2] = target: T3, SULT1E1 (Homo sapiens, UniProt P49888); assay: inhibition of 4-nitrophenol sulfation, UPLC-UV
T3 construct: recombinant, purchased from BD Gentest
T3 sequence (P49888 1-294): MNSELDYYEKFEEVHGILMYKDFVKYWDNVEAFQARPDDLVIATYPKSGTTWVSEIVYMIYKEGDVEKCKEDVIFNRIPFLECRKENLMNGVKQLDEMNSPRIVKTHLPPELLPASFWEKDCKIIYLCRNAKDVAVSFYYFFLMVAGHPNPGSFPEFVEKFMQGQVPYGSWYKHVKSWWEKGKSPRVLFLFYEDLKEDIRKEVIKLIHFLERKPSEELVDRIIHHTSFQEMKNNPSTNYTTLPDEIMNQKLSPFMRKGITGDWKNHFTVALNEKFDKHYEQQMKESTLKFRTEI
Excerpt: inhibition of 4-nitrophenol sulfation, UPLC-UV on SULT1E1

SULT1E1 [3] = target: T3, SULT1E1; assay: inhibition of 4-nitrophenol sulfation, UPLC-UV, Lineweaver-Burk slope replot
SULT1B1 [4] = target: T1, SULT1B1; assay: as above

T1 sequence (O43704 whole entry): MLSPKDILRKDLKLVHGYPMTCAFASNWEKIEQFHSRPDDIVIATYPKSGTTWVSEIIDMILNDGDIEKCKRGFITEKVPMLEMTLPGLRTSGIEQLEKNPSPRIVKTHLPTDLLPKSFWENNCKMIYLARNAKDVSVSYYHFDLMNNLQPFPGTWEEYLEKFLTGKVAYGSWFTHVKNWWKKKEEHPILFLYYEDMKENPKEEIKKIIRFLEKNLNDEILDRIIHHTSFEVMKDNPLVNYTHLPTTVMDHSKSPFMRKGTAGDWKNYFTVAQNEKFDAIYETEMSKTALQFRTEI
T2 sequence (P50225 whole entry): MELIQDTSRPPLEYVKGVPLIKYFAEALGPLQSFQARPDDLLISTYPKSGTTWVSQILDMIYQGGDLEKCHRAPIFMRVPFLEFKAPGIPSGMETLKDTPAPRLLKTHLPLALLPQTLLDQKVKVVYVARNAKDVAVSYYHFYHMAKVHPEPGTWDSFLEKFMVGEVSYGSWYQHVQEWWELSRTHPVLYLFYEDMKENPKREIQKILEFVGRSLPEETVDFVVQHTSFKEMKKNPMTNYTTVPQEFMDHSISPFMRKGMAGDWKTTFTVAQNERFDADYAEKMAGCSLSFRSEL

SMILES	IC50 (SULT1B1 [1]) [µM]	IC50 (SULT1A1) [µM]	IC50 (SULT1E1 [2]) [µM]	Ki (SULT1E1 [3]) [µM]	Ki (SULT1B1 [4]) [µM]
CCCCOC(=O)c1ccccc1C(=O)O [MBP]	8.49	–	–	–	–
O=C(O)c1ccccc1C(=O)OCc1ccccc1 [MBZP]	–	0.25	–	–	–
O=C(O)c1ccccc1C(=O)OC1CCCCC1 [MCHP]	12.8	–	–	–	–
CCCCC(CC)COC(=O)c1ccccc1C(=O)O (centres unmarked) [MEHP]	13.9	2.32	1.73	–	–
CCCCCCOC(=O)c1ccccc1C(=O)O [MHP]	11.6	17.1	4.54	–	–
CCCCCCCCOC(=O)c1ccccc1C(=O)O [MOP]	2.73	5.61	1.77	5.54	2.23
